In patent publication US5750496A, “Method of controlling cryptosporidium infectons using protease inhibitors” (priority 1996, dated 1998):
Starred links: 1 amine or outer side, 2 acyl side, 3 side chain; linkers in the order of their positions; H or OH if unused. Residues, ends and D or L forms follow the SMILES beside them. *: point of attachment. MeOSuc = COC(=O)CCC(=O)*; CO = O=C([*:1])[*:2]; CH2Cl = ClC*

B1: soybean trypsin inhibitor (protein, UniProt P01070 25-205, looked up)
Trypsin inhibitor A: DFVLDNEGNPLENGGTYYILSDITAFGGIRAAPTGNERCPLTVVQSRNELDKGIGTIISSPYRIRFIAEGHPLSLKFDSFAVIMLCVGIPTEWSVVEDLPEGPAVKIGENKDAMDGWFRLERVSDDEFNNYKLVFCPQQAEDDKCGDIGISIDHDDGTRRLVVSKNKPLVVQFQKLDKESL

Columns and labels:
C. parvum = assay: Anticryptosporidial effect in BFTE cell culture inoculated with C. parvum oocysts, parasites enumerated 24 hours post-inoculation; format: cell-based, Cryptosporidium parvum (bovine isolate); settings: for Control Percent Survival: 24 hours post-inoculation; for Lowest concentrations with significant reduction (P<0.001) in parasite numbers: concentrations as low as, P<0.001 vs infection control; for Intact (i.e. unexcysted) oocysts in treated BFTE cell monolayers during microscopic enumeration: predominantly associated with concentrations exceeding 100 μg/ml
Method: C. parvum (bovine isolate) oocysts used in this study were originally donated by the U.S. Department of Agriculture, Ames, Iowa. The oocysts were isolated from calf manure, preserved in 2.5% potassium dichromate, and used within 3 months of purification. Oocysts were decontaminated by suspension in 20% (vol/vol) 1.05% sodium hypochlorite on ice for 20 minutes. Oocysts were then washed three times in Hanks' balanced salt solution ("HIBSS") and once in RPMI 1640 (available from Sigma, St. Louis, Mo.). Release of sporozoites was achieved by incubating oocysts in an excystation solution consisting of 0.25% (wt/vol) trypsin (available from Sigma, St. Louis, Mo.) and 0.75% (wt/vol) taurodeoxycholic acid (available from Sigma) in HBSS. The resulting suspension was incubated at 37° C. for 45 minutes and microscopically observed to confirm sporozoite release. Sporozoites were completely separated from intact oocysts and oocyst walls by passage through sterile polycarbonate filters (3 micron pore size, available from Millipore Corp., Bedford, Mass.) twice prior to inoculation of bovine fallopian tube epithelial ("BFTE") cell monolayers.
Primary BFTE cell cultures were prepared from bovine fallopian tubes (FT). Fat was trimmed from the serosal surfaces, mucus was gently squeezed from the lumens, and FT were decontaminated by being submerged in 70% ethanol for 30 seconds. The FT were then transferred to sterile culture petri dishes containing HBSS and washed twice. The BFTE cells were harvested either by flushing the FT with HBSS, using a 10 ml syringe equipped with a mouse feeding needle, or by opening the FT lengthwise with scissors and scraping the mucosal surfaces. The BFTE cells were subsequently washed in HBSS by centrifugation at 200×g (force of gravity) for 10 minutes, planted in 75-cm^2 flasks containing RPMI 1640 and cultured in a 5% CO2 incubator at 37° C. for 72 to 120 hours. When the cell lines reached confluency, they were trypsinized, split, and planted onto cover slips positioned on the bottoms of individual wells in 24-well tissue culture plates. When cells reached 80% confluency, they were inoculated with either 10^5 oocysts or 4×10^5 sporozoites per well. Plates were then maintained at 37° C. in a candle jar environment (17% O2, 3% CO2, 80% N2). Growth medium was changed in each well every 72 hours. In wells inoculated with oocysts, the medium was first changed at 24 hours to remove any unexcysted oocysts.
Coverslips were removed at 5, 24, 48, 72, 96, and 120 hours from the inoculated wells containing monolayers of BFTE cells. The coverslips were washed in RPMI 1640, fixed in 100% methanol for 10 minutes, stained with Giemsa stain for 1 hour, and washed three times with double-distilled water (ddH2 O). Coverslips were then mounted on glass slides and examined under oil immersion (1000X), using bright-field microscopy. Parasites were enumerated by counting all developmental stages of C. parvum present in a single scan (67 fields) through the center of each coverslip. The data were statistically compared for significance, using analysis of variance (Fischer's protected least-significant-difference test using a "[…]" statistical analysis application developed by Abacus Concepts, Inc., Berkeley, Calif.).
The anticryptosporidial potential of the protease inhibitor AAT was evaluated in a BFTE cell culture system inoculated with C. parvum oocysts in accordance with the methods detailed in Example I. […] At 24 hours post-inoculation, the BFTE cells were rinsed with RPMI medium, fixed in methanol, and stained with Giemsa. Parasites were enumerated in cell monolayers by brightfield microscopy. Results, as set out in Table 1, represent the mean number of parasites counted per treatment group expressed as a percent, plus or minus the standard deviation, of the mean number of parasites counted in the infection control group.

BFTE cells = assay: Cytotoxicity for BFTE cells at the concentrations evaluated; format: cell-based, bovine; settings: at the concentrations evaluated (5-1000 μg/ml)
Method: Primary BFTE cell cultures were prepared from bovine fallopian tubes (FT). Fat was trimmed from the serosal surfaces, mucus was gently squeezed from the lumens, and FT were decontaminated by being submerged in 70% ethanol for 30 seconds. The FT were then transferred to sterile culture petri dishes containing HBSS and washed twice. The BFTE cells were harvested either by flushing the FT with HBSS, using a 10 ml syringe equipped with a mouse feeding needle, or by opening the FT lengthwise with scissors and scraping the mucosal surfaces. The BFTE cells were subsequently washed in HBSS by centrifugation at 200×g (force of gravity) for 10 minutes, planted in 75-cm^2 flasks containing RPMI 1640 and cultured in a 5% CO2 incubator at 37° C. for 72 to 120 hours. […]
The anticryptosporidial potential of the protease inhibitor AAT was evaluated in a BFTE cell culture system inoculated with C. parvum oocysts in accordance with the methods detailed in Example I. AAT concentrations of 5, 10, 50 100, and 500 micrograms per milliliter ("μg/ml") in RPMI medium were mixed with C. parvum oocysts and used to inoculate BFTE cell monolayers. […] Results, as set out in Table 1, represent the mean number of parasites counted per treatment group expressed as a percent, plus or minus the standard deviation, of the mean number of parasites counted in the infection control group.

[1] = 5 μg/ml, mean parasites as percent of infection control +/- SD
[2] = 10 μg/ml, mean parasites as percent of infection control +/- SD
[3] = 50 μg/ml, mean parasites as percent of infection control +/- SD
[4] = 100 μg/ml, mean parasites as percent of infection control +/- SD
[5] = 500 μg/ml, mean parasites as percent of infection control +/- SD
[6] = 1000 μg/ml, mean parasites as percent of infection control +/- SD

Row | Molecule | Control Percent Survival (C. parvum; [1]) | Control Percent Survival (C. parvum; [2]) | Control Percent Survival (C. parvum; [3]) | Control Percent Survival (C. parvum; [4]) | Control Percent Survival (C. parvum; [5]) | Control Percent Survival (C. parvum; [6]) | Lowest concentrations with significant reduction (P<0.001) in parasite numbers (C. parvum) [µg/mL] | Intact (i.e. unexcysted) oocysts in treated BFTE cell monolayers during microscopic enumeration (C. parvum) | Number of parasites vs infection control (P<0.01) (C. parvum; 10 μg/ml and 50 μg/ml) | Number of parasites vs infection control (P<0.01) (C. parvum; 500 μg/ml) | Control Percent Survival (C. parvum; 1 mM, percent of infection control +/- SD) | Control Percent Survival (C. parvum; 2 mM, percent of infection control +/- SD) | Control Percent Survival (C. parvum; 3 mM, percent of infection control +/- SD) | Number of parasites vs infection control (P<0.001) (C. parvum; 3 mM, P<0.001) | Cytotoxicity for BFTE cells (BFTE cells) | Number of parasites vs infection control (P<0.01) (C. parvum; 50 μg/ml and 100 μg/ml)
1 | CC(C)[C@H](NC(=O)[C@H](CCCNC(=N)N)NC(=O)N[C@@H](Cc1ccccc1)C(=O)O)C(=O)N[C@H](C=O)CCCNC(=N)N [ANTIPAIN, antipain] ({Phe-CO}-Arg-Val-Arg-aldehyde) | 67.7 +/- 7.2% | 53.1 +/- 5.8% | 42.1 +/- 6.1% | 20.9 +/- 2.2% | 15.6 +/- 1.4% | 6.6 +/- 1.4% | 5 to 10 | frequently observed | – | – | – | – | – | – | – | –
2 | CC(=O)N[C@@H](CC(C)C)C(=O)N[C@@H](CC(C)C)C(=O)N[C@H](C=O)CCCNC(=N)N [Leupeptin, leupeptin] | 89.1 +/- 5.4% | 64.8 +/- 12.0% | 58.7 +/- 11.2% | 51.9 +/- 4.6% | 43.4 +/- 6.6% | – | – | – | significantly reduced | – | – | – | – | – | – | –
3 | COC(=O)CCC(=O)N[C@@H](C)C(=O)N[C@@H](C)C(=O)N1CCC[C@H]1C(=O)N[C@H](C(=O)CCl)C(C)C [MAAPVCK, methoxysuccinyl-ala-ala-pro-valine chloromethylketone] (MeOSuc-AAPV-CH2Cl) | 89.1 +/- 5.4% | 64.8 +/- 12.0% | 58.7 +/- 11.2% | 51.9 +/- 4.6% | 43.4 +/- 6.6% | – | – | – | – | significantly reduced | – | – | – | – | – | –
4 | O=S(=O)(F)Cc1ccccc1 [PMSF, phenylmethylsulfonyl flouride] | – | – | – | – | – | – | – | – | – | – | 68.9 +/- 5.2% | 55.9 +/- 4.7% | 40.0 +/- 8.3% | significantly reduced | – | –
5 | alpha-1-antitrypsin [AAT] | 49.1 +/- 3.8% | 43.9 +/- 4.2% | 42.7 +/- 1.6% | 30.4 +/- 1.9% | 14.7 +/- 6.3% | 1.8 +/- 0.4% | 5 to 10 | frequently observed | – | – | – | – | – | – | no evidence of cytotoxicity | –
6 | aprotinin | 83.9 +/- 6.6% | 54.2 +/- 6.0% | 36.1 +/- 4.7% | 16.8 +/- 5.1% | 10.9 +/- 4.7% | 9.4 +/- 1.8% | 5 to 10 | frequently observed | – | – | – | – | – | – | – | –
7 | B1 | 89.1 +/- 5.4% | 64.8 +/- 12.0% | 58.7 +/- 11.2% | 51.9 +/- 4.6% | 43.4 +/- 6.6% | – | – | – | – | – | – | – | – | – | – | significantly reduced
